For the experiment, the target named is T1, rat mGluR5 (Rattus norvegicus, UniProt P31424).
T1 construct: expressed in transfected cells; host or cells: human embryonic kidney (HEK) cells
Briefly: Potentiation of glutamate response, Ca2+ fluorescence (FDSS) in HEK cells transfected with rat mGluR5. The class given is cell-based. To be noted: Table 1; potentiation of mGluR5 response to glutamate; read-out: EC50. As for the experimental part: Human embryonic kidney (HEK) cells transfected with rat mGluR5 were plated in clear bottom assay plates for assay in a Functional Drug Screening System (FDSS). The cells were loaded with a Ca^2+-sensitive fluorescent dye (e.g., Fluo-4), and the plates were washed and placed in the FDSS instrument. After establishment of a fluorescence baseline for twelve seconds, the compounds of the present invention were added to the cells, and the response in cells was measured. Five minutes later, an mGluR5 agonist (e.g., glutamate, 3,5-dihydroxyphenylglycine, or quisqualate) was added to the cells, and the response of the cells was measured. Potentiation of the agonist response of mGluR5 by the compounds in the present invention was observed as an increase in response to non-maximal concentrations of agonist (here, glutamate) in the presence of compound compared to the response to agonist in the absence of compound.
The above described assay operated in two modes. In the first mode, a range of concentrations of the present compounds were added to cells, followed by a single fixed concentration of agonist. If a compound acted as a potentiator, an EC50 value for potentiation and a maximum extent of potentiation by the compound at this concentration of agonist was determined by non-linear curve fitting. In the second mode, several fixed concentrations of the present compounds were added to various wells on a plate, followed by a range of concentrations of agonist for each concentration of present compound; the EC50 values for the agonist at each concentration of compound were determined by non-linear curve fitting. A decrease in the EC50 value of the agonist with increasing concentrations of the present compounds (a leftward shift of the agonist concentration-response curve) is an indication of the degree of mGluR5 potentiation at a given concentration of the present compound. An increase in the EC50 value of the agonist with increasing concentrations of the present compounds (a rightward shift of the agonist concentration-response curve) is an indication of the degree of mGluR5 antagonism at a given concentration of the present compound. The second mode also indicates whether the present compounds also affect the maximum response to mGluR5 to agonists.

T1 sequence (P31424 21-1203): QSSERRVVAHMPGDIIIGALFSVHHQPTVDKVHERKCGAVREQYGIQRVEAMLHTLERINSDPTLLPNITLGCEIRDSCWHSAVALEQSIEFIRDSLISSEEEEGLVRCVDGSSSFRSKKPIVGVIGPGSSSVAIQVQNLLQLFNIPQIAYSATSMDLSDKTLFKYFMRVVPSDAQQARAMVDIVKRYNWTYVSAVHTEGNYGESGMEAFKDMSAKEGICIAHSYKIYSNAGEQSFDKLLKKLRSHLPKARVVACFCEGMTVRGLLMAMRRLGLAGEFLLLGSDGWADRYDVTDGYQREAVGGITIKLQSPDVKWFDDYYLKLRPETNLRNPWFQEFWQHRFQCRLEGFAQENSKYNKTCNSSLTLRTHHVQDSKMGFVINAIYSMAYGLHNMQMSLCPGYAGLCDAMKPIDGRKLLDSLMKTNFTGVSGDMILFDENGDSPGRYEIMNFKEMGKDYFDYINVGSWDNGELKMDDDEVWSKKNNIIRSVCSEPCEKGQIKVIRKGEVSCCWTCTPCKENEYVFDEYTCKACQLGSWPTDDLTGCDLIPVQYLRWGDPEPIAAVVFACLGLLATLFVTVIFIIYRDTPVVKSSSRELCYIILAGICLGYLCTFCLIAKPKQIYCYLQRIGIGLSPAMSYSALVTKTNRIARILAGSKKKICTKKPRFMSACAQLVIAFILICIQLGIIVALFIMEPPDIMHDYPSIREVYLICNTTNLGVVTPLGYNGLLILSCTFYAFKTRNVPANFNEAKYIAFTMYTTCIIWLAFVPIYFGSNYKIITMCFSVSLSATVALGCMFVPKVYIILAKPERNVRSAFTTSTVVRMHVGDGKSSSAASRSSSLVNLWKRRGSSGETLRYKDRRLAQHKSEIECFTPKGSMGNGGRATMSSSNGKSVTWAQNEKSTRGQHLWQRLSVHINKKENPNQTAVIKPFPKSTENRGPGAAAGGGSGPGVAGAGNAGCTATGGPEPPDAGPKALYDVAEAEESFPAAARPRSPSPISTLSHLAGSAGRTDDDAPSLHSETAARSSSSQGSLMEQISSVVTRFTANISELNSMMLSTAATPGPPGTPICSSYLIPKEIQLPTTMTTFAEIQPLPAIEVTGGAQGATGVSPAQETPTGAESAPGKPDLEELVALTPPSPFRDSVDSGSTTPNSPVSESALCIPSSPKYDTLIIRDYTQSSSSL

One may read the EC50 as the concentration giving half of the maximal effect. `O=C(NC1CCC1)c1ccc(OCc2ccccc2)nc1` [Example 1.2a.9]: the EC50 came to 340 nM. With `O=C(c1ccc(OCc2ccccc2)nc1)N1CCC1` [Example 1.2a.10], the EC50 was 3700 nM. Regarding `O=C(Nc1ccc(F)cn1)c1ccc(OCc2ccccc2)nc1` [Example 1.2a.11], the EC50 amounted to 280 nM. The result for `O=C(NCc1ccccn1)c1ccc(OCc2ccccc2)nc1` [Example 1.2a.12] reads 3400 nM; that for `O=C(Nc1ccncn1)c1ccc(OCc2ccccc2)nc1` [Example 1.2a.13], 1100 nM; that for `O=C(Nc1ccccc1)c1ccc(OCc2ccccc2)nc1` [Example 1.2a.14], 380 nM. With `O=C(Nc1ccccc1F)c1ccc(OCc2ccccc2)nc1` [Example 1.2a.15], the EC50 is 310 nM. Consider `O=C(Nc1cccc(F)c1)c1ccc(OCc2ccccc2)nc1` [Example 1.2a.16], for which the EC50 amounted to 530 nM.

`O=C(Nc1ccc(F)cc1)c1ccc(OCc2ccccc2)nc1` [Example 1.2a.17]: the EC50 turned out to be 340 nM.

On to `O=C(Nc1nccs1)c1ccc(OCc2ccccc2)nc1` [Example 1.2a.18], for which the EC50 amounted to 520 nM. The result for `C[C@@H](NC(=O)c1ccc(OCc2ccccc2)nc1)C1CCCCC1` [Example 1.2a.19] reads 40 nM. The result for `Cc1csc(NC(=O)c2ccc(OCc3ccccc3)nc2)n1` [Example 1.2a.20] reads 1600 nM; that for `O=C(NCC1CCOCC1)c1ccc(OCc2ccccc2)nc1` [Example 1.2a.21], 3900 nM; that for `C[C@@H](NC(=O)c1ccc(OCc2ccccc2)nc1)C1CC1` [Example 1.2a.22], 170 nM. For the compound `O=C(NC1CCOCC1)c1ccc(OCc2ccccc2)nc1` [Example 1.2a.23], the concentration for a half-maximal effect (EC50) stood at 3900 nM. Take `O=C(NC1CCCCC1)c1ccc(OCc2ccccc2)nc1` [Example 1.2a.24]: the EC50 was 140 nM. On to `Cc1nc(OCc2ccccc2)ccc1C(=O)NCC1CC1` [Example 1.2b.2], for which the EC50 amounted to 1600 nM.

Turning to `Cc1nc(OCc2ccccc2)ccc1C(=O)NCCC(C)(C)C` [Example 1.2b.3], the EC50 was 400 nM. For the compound `CC(C)(C)CCNC(=O)c1ccc(OCc2cccc(F)c2)nc1` [Example 1.2c.3], the 50% effective concentration (EC50) was determined as 85 nM. The result for `CC(C)NC(=O)c1ccc(OCc2cccc(F)c2)nc1` [Example 1.2c.4] reads 1000 nM; that for `CC(C)(C)NC(=O)c1ccc(OCc2cccc(F)c2)nc1` [Example 1.2c.5], 400 nM; that for `O=C(NC1CCCCC1)c1ccc(OCc2cccc(F)c2)nc1` [Example 1.2c.6], 40 nM. The result for `O=C(c1ccc(OCc2cccc(F)c2)nc1)N1CCOCC1` [Example 1.2c.7] reads 1700 nM; that for `O=C(NCc1ccccn1)c1ccc(OCc2cccc(F)c2)nc1` [Example 1.2c.8], 2700 nM; that for `O=C(Nc1ccccc1F)c1ccc(OCc2cccc(F)c2)nc1` [Example 1.2c.9], 210 nM. The result for `O=C(Nc1cccc(F)c1)c1ccc(OCc2cccc(F)c2)nc1` [Example 1.2c.10] reads 460 nM.

With `O=C(Nc1ccc(F)cc1)c1ccc(OCc2cccc(F)c2)nc1` [Example 1.2c.11], the EC50 came out at 260 nM.

`O=C(Nc1ccc(Cl)cc1F)c1ccc(OCc2cccc(F)c2)nc1` [Example 1.2c.12]: the EC50 is 570 nM. The result for `O=C(Nc1ccc(Cl)cn1)c1ccc(OCc2cccc(F)c2)nc1` [Example 1.2c.13] reads 346 nM.

Turning to `O=C(NCC1CC1)c1ccc(OCc2cccc(F)c2)nc1` [Example 1.2c.14], the EC50 is 920 nM. With `C[C@@H](NC(=O)c1ccc(OCc2cccc(F)c2)nc1)C1CC1` [Example 1.2c.15], the EC50 worked out at 94 nM. Take `O=C(NCC1CCCCC1)c1ccc(OCc2cccc(F)c2)nc1` [Example 1.2c.16]: the EC50 came to 230 nM.

Turning to `O=C(NCC1CCOCC1)c1ccc(OCc2cccc(F)c2)nc1` [Example 1.2c.17], the EC50 stood at 1100 nM. The result for `C[C@@H](NC(=O)c1ccc(OCc2cccc(F)c2)nc1)C1CCCCC1` [Example 1.2c.18] reads 190 nM.
